≈ marks a conversion by molar mass, not a printed value.
Key:
Trichosporon beigelii [1] = test: In vitro minimum inhibitory concentration of compound was determined against Trichosporon beigelii after 24 hr r; assay type: functional
Candida albicans [2] = test: In vitro minimum inhibitory concentration of compound was determined against Candida albicans after 48 hr; assay type: functional
Nakaseomyces glabratus [3] = test: In vitro minimum inhibitory concentration of compound was determined against Candida glabrata after 48 hr; assay type: functional
Aspergillus fumigatus [4] = test: In vitro minimum inhibitory concentration of compound was determined against Aspergillus fumigatus after 48 hr; assay type: functional
Nakaseomyces glabratus [5] = test: In vitro minimum inhibitory concentration of compound was determined against Candida glabrata after 24 hr r; assay type: functional
Trichophyton benhamiae [6] = test: In vitro minimum inhibitory concentration of compound was determined against Trichophyton mentagrophytes after 120 hr; assay type: functional, Arthroderma benhamiae
Candida albicans [7] = test: In vitro minimum inhibitory concentration of compound was determined against Candida albicans after 24 hr r; assay type: functional
Candida tropicalis [8] = test: In vitro minimum inhibitory concentration of compound was determined against Candida tropicalis after 24 hr r; assay type: functional
Lichtheimia corymbifera [9] = test: In vitro minimum inhibitory concentration of compound was determined against Absidia corymbifera after 24 hr r; assay type: functional
Trichosporon beigelii [10] = test: In vitro minimum inhibitory concentration of compound was determined against Trichosporon beigelii after 48 hr; assay type: functional
Pichia kudriavzevii [11] = test: In vitro minimum inhibitory concentration of compound was determined against Candida krusei after 24 hr r; assay type: functional
Trichophyton benhamiae [12] = test: In vitro minimum inhibitory concentration of compound was determined against Trichophyton mentagrophytes after 72 hr; assay type: functional, Arthroderma benhamiae
Candida tropicalis [13] = test: In vitro minimum inhibitory concentration of compound was determined against Candida tropicalis after 48 hr; assay type: functional
Lichtheimia corymbifera [14] = test: In vitro minimum inhibitory concentration of compound was determined against Absidia corymbifera after 48 hr; assay type: functional
Aspergillus fumigatus [15] = test: In vitro minimum inhibitory concentration of compound was determined against Aspergillus fumigatus after 24 hr r; assay type: functional
Pichia kudriavzevii [16] = test: In vitro minimum inhibitory concentration of compound was determined against Candida krusei after 48 hr; assay type: functional

Row | Compound | MIC (Trichosporon beigelii [1]) [µM] | MIC (Candida albicans [2]) [µM] | MIC (Nakaseomyces glabratus [3]) [µM] | MIC (Aspergillus fumigatus [4]) [µM] | MIC (Nakaseomyces glabratus [5]) [µM] | MIC (Trichophyton benhamiae [6]) [µM] | MIC (Candida albicans [7]) [µM] | MIC (Candida tropicalis [8]) [µM] | MIC (Lichtheimia corymbifera [9]) [µM] | MIC (Trichosporon beigelii [10]) [µM] | MIC (Pichia kudriavzevii [11]) [µM] | MIC (Trichophyton benhamiae [12]) [µM] | MIC (Candida tropicalis [13]) [µM] | MIC (Lichtheimia corymbifera [14]) [µM] | MIC (Aspergillus fumigatus [15]) [µM] | MIC (Pichia kudriavzevii [16]) [µM]
1 | CC1C=C(c2ccccc2)C(=O)O1 (configuration not stated) | > 1000 | > 1000 | > 1000 | > 1000 | > 1000 | 1000 (≈ 174 µg/mL) | 1000 (≈ 174 µg/mL) | > 1000 | 1000 (≈ 174 µg/mL) | > 1000 | > 1000 | 500 (≈ 87.1 µg/mL) | > 1000 | > 1000 | 1000 (≈ 174 µg/mL) | > 1000
2 | Cc1ccc(C2=CC(C)OC2=O)cc1 (configuration not stated) | > 1000 | > 1000 | > 1000 | > 1000 | > 1000 | 500 (≈ 94.1 µg/mL) | 1000 (≈ 188 µg/mL) | > 1000 | 1000 (≈ 188 µg/mL) | > 1000 | > 1000 | 250 (≈ 47.1 µg/mL) | > 1000 | > 1000 | 1000 (≈ 188 µg/mL) | > 1000
3 | COc1ccc(C2=CC(C)OC2=O)cc1 (configuration not stated) | 1000 (≈ 204 µg/mL) | 1000 (≈ 204 µg/mL) | > 1000 | 1000 (≈ 204 µg/mL) | > 1000 | 250 (≈ 51.1 µg/mL) | 1000 (≈ 204 µg/mL) | 1000 (≈ 204 µg/mL) | 1000 (≈ 204 µg/mL) | > 1000 | > 1000 | 125 (≈ 25.5 µg/mL) | > 1000 | > 1000 | 1000 (≈ 204 µg/mL) | > 1000
4 | CC1C=C(c2ccc([N+](=O)[O-])cc2)C(=O)O1 (configuration not stated) | 500 (≈ 110 µg/mL) | 500 (≈ 110 µg/mL) | 1000 (≈ 219 µg/mL) | 1000 (≈ 219 µg/mL) | 500 (≈ 110 µg/mL) | 125 (≈ 27.4 µg/mL) | 250 (≈ 54.8 µg/mL) | 500 (≈ 110 µg/mL) | 250 (≈ 54.8 µg/mL) | 1000 (≈ 219 µg/mL) | 500 (≈ 110 µg/mL) | 62.5 (≈ 13.7 µg/mL) | 500 (≈ 110 µg/mL) | 250 (≈ 54.8 µg/mL) | 250 (≈ 54.8 µg/mL) | 500 (≈ 110 µg/mL)
5 | CC1C=C(c2cccc(F)c2)C(=O)O1 (configuration not stated) | 250 (≈ 48 µg/mL) | 250 (≈ 48 µg/mL) | > 1000 | 500 (≈ 96.1 µg/mL) | > 1000 | 125 (≈ 24 µg/mL) | 62.5 (≈ 12 µg/mL) | 500 (≈ 96.1 µg/mL) | 500 (≈ 96.1 µg/mL) | 500 (≈ 96.1 µg/mL) | 500 (≈ 96.1 µg/mL) | 125 (≈ 24 µg/mL) | 1000 (≈ 192 µg/mL) | 500 (≈ 96.1 µg/mL) | 250 (≈ 48 µg/mL) | 1000 (≈ 192 µg/mL)
6 | CC1C=C(c2ccc(Br)cc2)C(=O)O1 (configuration not stated) | 125 (≈ 31.6 µg/mL) | 62.5 (≈ 15.8 µg/mL) | 1000 (≈ 253 µg/mL) | 250 (≈ 63.3 µg/mL) | 500 (≈ 127 µg/mL) | 62.5 (≈ 15.8 µg/mL) | 7.81 (≈ 1.98 µg/mL) | 250 (≈ 63.3 µg/mL) | 125 (≈ 31.6 µg/mL) | 250 (≈ 63.3 µg/mL) | 250 (≈ 63.3 µg/mL) | 31.2 (≈ 7.91 µg/mL) | 500 (≈ 127 µg/mL) | 125 (≈ 31.6 µg/mL) | 62.5 (≈ 15.8 µg/mL) | 250 (≈ 63.3 µg/mL)
7 | CC(=O)N1CCN(c2ccc(OC[C@H]3CO[C@](Cn4ccnc4)(c4ccc(Cl)cc4Cl)O3)cc2)CC1 [KETOCONAZOLE] | 0.12 (≈ 0.0638 µg/mL) | 0.12 (≈ 0.0638 µg/mL) | 0.49 (≈ 0.26 µg/mL) | 15.6 (≈ 8.31 µg/mL) | 0.24 (≈ 0.128 µg/mL) | 1.95 (≈ 1.04 µg/mL) | 0.12 (≈ 0.0638 µg/mL) | 15.6 (≈ 8.31 µg/mL) | 31.2 (≈ 16.6 µg/mL) | 0.12 (≈ 0.0638 µg/mL) | 3.91 (≈ 2.08 µg/mL) | 0.98 (≈ 0.521 µg/mL) | 15.6 (≈ 8.31 µg/mL) | 31.2 (≈ 16.6 µg/mL) | 15.6 (≈ 8.31 µg/mL) | 3.91 (≈ 2.08 µg/mL)
8 | CC1C=C(c2cccc(Br)c2)C(=O)O1 (configuration not stated) | 62.5 (≈ 15.8 µg/mL) | 125 (≈ 31.6 µg/mL) | 500 (≈ 127 µg/mL) | 250 (≈ 63.3 µg/mL) | 250 (≈ 63.3 µg/mL) | 125 (≈ 31.6 µg/mL) | 31.2 (≈ 7.91 µg/mL) | 250 (≈ 63.3 µg/mL) | 62.5 (≈ 15.8 µg/mL) | 250 (≈ 63.3 µg/mL) | 250 (≈ 63.3 µg/mL) | 62.5 (≈ 15.8 µg/mL) | 500 (≈ 127 µg/mL) | 125 (≈ 31.6 µg/mL) | 62.5 (≈ 15.8 µg/mL) | 500 (≈ 127 µg/mL)
9 | CC1C=C(c2ccc(Cl)cc2)C(=O)O1 (configuration not stated) | 125 (≈ 26.1 µg/mL) | 125 (≈ 26.1 µg/mL) | 1000 (≈ 209 µg/mL) | 125 (≈ 26.1 µg/mL) | 500 (≈ 104 µg/mL) | 62.5 (≈ 13 µg/mL) | 31.2 (≈ 6.52 µg/mL) | 250 (≈ 52.2 µg/mL) | 125 (≈ 26.1 µg/mL) | 250 (≈ 52.2 µg/mL) | 250 (≈ 52.2 µg/mL) | 31.2 (≈ 6.52 µg/mL) | 500 (≈ 104 µg/mL) | 250 (≈ 52.2 µg/mL) | 62.5 (≈ 13 µg/mL) | 500 (≈ 104 µg/mL)
10 | CC1C=C(c2ccc(Cl)c(Cl)c2)C(=O)O1 (configuration not stated) | 31.2 (≈ 7.6 µg/mL) | 500 (≈ 122 µg/mL) | > 500 | 62.5 (≈ 15.2 µg/mL) | > 500 | 62.5 (≈ 15.2 µg/mL) | 31.2 (≈ 7.6 µg/mL) | > 500 | 7.81 (≈ 1.9 µg/mL) | > 500 | > 500 | 31.2 (≈ 7.6 µg/mL) | > 500 | 31.2 (≈ 7.6 µg/mL) | 7.81 (≈ 1.9 µg/mL) | > 500
11 | CC[C@@H]1C=C(c2ccc(C)cc2)C(=O)O1 | 250 (≈ 50.6 µg/mL) | 500 (≈ 101 µg/mL) | > 500 | 500 (≈ 101 µg/mL) | 500 (≈ 101 µg/mL) | 250 (≈ 50.6 µg/mL) | 250 (≈ 50.6 µg/mL) | 500 (≈ 101 µg/mL) | 250 (≈ 50.6 µg/mL) | 500 (≈ 101 µg/mL) | 500 (≈ 101 µg/mL) | 125 (≈ 25.3 µg/mL) | > 500 | 250 (≈ 50.6 µg/mL) | 250 (≈ 50.6 µg/mL) | > 500
12 | CC1C=C(c2ccc(F)cc2)C(=O)O1 (configuration not stated) | 125 (≈ 24 µg/mL) | 250 (≈ 48 µg/mL) | 500 (≈ 96.1 µg/mL) | 125 (≈ 24 µg/mL) | 500 (≈ 96.1 µg/mL) | 250 (≈ 48 µg/mL) | 62.5 (≈ 12 µg/mL) | 250 (≈ 48 µg/mL) | 62.5 (≈ 12 µg/mL) | 250 (≈ 48 µg/mL) | 500 (≈ 96.1 µg/mL) | 250 (≈ 48 µg/mL) | 500 (≈ 96.1 µg/mL) | 62.5 (≈ 12 µg/mL) | 125 (≈ 24 µg/mL) | 500 (≈ 96.1 µg/mL)
